Columns and labels:
[1] = test system: foreign proximal renal tubular cells; conditions: in vivo, ip
Text: In Experimental Example 1, instead of the collected cells derived from the EGFP mouse embryonic E14 kidney, GFP-expressing human nephron precursor cells were directly injected into a subcapsular region of the kidney of a neonatal mouse aged 0 to 1 day after birth. The foreign nephrons in the cell injection region 2 weeks after the transplantation were examined by immunostaining (see (A) of FIG. 9). As shown in (A) of FIG. 9, the formation of glomeruli and renal tubules derived from GFP-expressing human nephron precursor cells was confirmed. In addition, cisplatin was intraperitoneally administered to a mouse individual having a chimeric kidney 2 weeks after the transplantation of the GFP-expressing human nephron precursor cells, and the regenerated nephrons were recovered 48 hours later and evaluated by immunofluorescence staining.

regenerated nephrons = conditions: mouse, in vivo, ip
Text: (§1) This method has a low accuracy in the cell injection site and a low survival rate of the host fetus, and thus, a simpler method is required to establish the method as an evaluation model. Therefore, the collected cells derived from the EGFP mouse embryonic E14 kidney were directly injected into a subcapsular region of the kidney of a neonatal mouse aged 0 to 1 day after birth (see FIG. 3) by utilizing a fact that nephron precursor cells remain until about 3 days after birth and the renal development continues in mice (see Hartman H A, Lai H L. Cessation of renal morphogenesis in mice. 2007; 310(2): 379-87).
(§2) Cisplatin was intraperitoneally administered to a mouse individual having a chimeric kidney 2 weeks after transplantation, which was created in Experimental Example 1, and the regenerated nephrons were recovered 48 hours later and evaluated by immunofluorescence staining.
In addition, single-cell RNA sequencing was performed on the recovered sample.

[2] = test system: foreign proximal renal tubular cells; conditions: mouse, in vivo, ip
Text: as §1, §2

## N.N.[Cl][Pt][Cl] [cisplatin]
[1]
  expression of human Kim-1 in the foreign proximal renal tubular cells: expression of human Kim-1 was confirmed
Regenerated nephrons
  expression of disorder-related genes other than Kim-1: enhanced expression of disorder-related genes other than Kim-1 was also confirmed
[2]
  expression of Kim-1 in the foreign proximal renal tubular cells: dose-dependent expression of Kim-1 was confirmed

— patent US20260174714A1, “NONHUMAN ANIMAL AND USE THEREOF” (THE JIKEI UNIVERSITY, priority 2022, published 2026)
